From article PMC7370100, “In Vitro Assessment of the Genotoxic Hazard of Novel Hydroxamic Acid- and Benzamide-Type Histone Deacetylase Inhibitors (HDACi)” (International Journal of Molecular Sciences, 2020)
Where two headings read alike, the source gives them in different places.

What was measured:
[1] = system: IMR-32 neuroblastoma cells; experiment: Alamar blue assay (cell viability), IMR-32 cells; format: cell-based, human
Protocol: (§1) V79 hamster lung cells, which are recommended in the OECD toxicology guidelines for hazard identification (i.e., cytotoxicity and genotoxicity) of chemicals, were purchased from the German Collection of Microorganisms and Cell Cultures (DSMZ, Braunschweig, Germany). They were cultured in Dulbecco´s modified Eagle medium and Ham´s F12 medium (DMEM/F12) (PromoCell, Heidelberg, Germany) containing 10% fetal calf serum at 37 °C in a humidified atmosphere containing 5% CO2. VC8 hamster cells were defective in DNA double-strand break (DSB) repair by homologous recombination (HR) due to the lack of functional BRCA2 protein [69, 70]. VC8 cells were provided by B. Kaina (Institute of Toxicology, Mainz, Germany). Nucleotide excision repair defective XPA and CSB deficient cells were also provided by B. Kaina and were described before. They were grown in DMEM containing 10% fetal calf serum. Human neuroblastoma cells (IMR-32 and SH-SY5Y) were purchased from the German Collection of Microorganisms and Cell Cultures (DSMZ, Braunschweig, Germany) and were used as a model of malignant cells. They were grown in DMEM or RPMI (Roswell park memorial institute) medium, respectively, containing 10% fetal calf serum. If not stated otherwise, HDACi were added to the exponentially growing cells and analyses were performed 6 h to 72 h later.
(§2) Cell viability was determined using the Alamar blue assay, which reflected the mitochondrial activity. Viable cells were characterized by an effective mitochondrial metabolization of the non-fluorescent dye resazurin (Sigma, Steinheim, Germany) to fluorescent resorufin (excitation: 535 nm, emission: 590 nm). Relative viability in the untreated control was set to 100%. In addition, the Neutral red assay, which measures the integrity of lysosomal membranes, was used to monitor cytotoxicity. To this end, cells were incubated with the Neutral red solution (0.01%) in an atmosphere containing 5% CO2 for 90 min before they were fixed (1% formaldehyde/1% CaCl2). Afterwards, the Neutral red that was taken up by the cells was extracted (50% ethanol/1% of acetic acid, 15 min at room temperature (RT)) and absorbance (540 nm) was measured. If not stated otherwise, data are shown as the mean ± standard deviation (SD) of two to three independent experiments each performed in quadruplicate. Approximate IC50 (~IC50, see Supplementary Table S1) were calculated from the corresponding dose-response curves.

V79 hamster lung cells = experiment: Neutral red assay (cytotoxicity), V79 cells; format: cell-based
Protocol: as §1, §2

[2] = system: IMR-32 neuroblastoma cells; experiment: Neutral red assay (cytotoxicity), IMR-32 cells; format: cell-based, human
Protocol: as §1, §2

V79 cells [3] = experiment: Cell cycle distribution / SubG1 fraction by flow cytometry; format: cell-based, hamster; conditions: 24 h, in words
Protocol: For flow cytometry-based analysis of cell cycle distribution, cells were trypsinized and combined with floating cells present in the medium. Following fixation with ice-cold ethanol (80%) (≥1 h, −20 °C), cells were pelleted (1000× g, 10 min, 4 °C) and suspended in phosphate-buffered saline (PBS). DNase-free RNase A (Serva, Heidelberg, Germany) was added (2 μg/mL, 1 h at RT). Nuclei were stained with propidium iodide (36.7 μg/mL Sigma, Steinheim, Germany) and analysis was performed using BD Accuri™C6 flow cytometer (BD, Franklin Lakes, NJ, USA).

V79 cells [4] = experiment: Alkaline comet assay (DNA strand breaks); conditions: for Mean (% DNA in tail) / DNA strand breaks (comet assay): 24 h; for Mean (% DNA in tail) / Comet Assay: V79; for Mean (% DNA in tail): untreated control 16.8; for DNA strand breaks (comet assay): V79, in words; for Comet Assay: summary grade
Protocol: The formation of DNA strand breaks and apurinic/apyrimidinic sites was monitored employing the alkaline comet assay [87], which is part of the OECD guideline of in vivo genotoxicity testings and detects DNA strand breaks (DNA single- and double-strand breaks) and alkali-labile sites [87]. Briefly, after aspiration of the medium and trypsinization, cells were mixed with 0.5% melting agarose and transferred onto agarose-coated (1.5%) slides. After lysis in alkaline buffer (pH 10) (1 h, 4 °C, light protection) and unwinding of the DNA in precooled lysis buffer (pH >13) (20 min, 4 °C, light protection), electrophoresis was performed (electric current: 300 mA constant; 1 V/cm). After neutralization in salt buffer (pH 7.5) and staining with propidium iodide solution (50 µg/mL), comets were evaluated by fluorescence microscopy. Quantification of migrated DNA was performed with TriTek Comet Score™ software Version 1.5, evaluating ≥50 cells per condition (blinded assessment). […] Fold increase in tail intensities of treated cells were calculated by relating the % DNA in tail of treated cells to that of the corresponding untreated controls, which were set to 1.0 (see Figure 2B).

XPA-deficient cells = experiment: Viability of XPA-deficient versus proficient fibroblasts (Alamar blue); format: cell-based, human; conditions: 72 h, in words
Protocol: Figure 7 Sensitivity of nucleotide excision repair (NER) defective cells to hydroxamic acid- and benzamide-type HDACi. Viability of wild-type human fibroblasts and fibroblasts defective in nucleotide excision repair (NER) pathways (i.e., global genome nucleotide excision repair (GG-NER) or transcription-coupled nucleotide excision repair (TC-NER)) due to a defect in Xeroderma pigmentosum group A protein (XPA) or Cockayne syndrome protein B (CSB), respectively, was analyzed 72 h after the addition of HDACi by the Alamar blue assay, as described in Methods. The DNA intrastrand cross-linking agent cisplatin was used for control. Data shown are the mean ± SD from three independent experiments (n = 3) each performed in triplicate (N = 3); ns, not significant; *, p ≤ 0.05; **, p ≤ 0.01 as compared to the corresponding untreated controls (Student´s t-test).
V79 hamster lung cells, which are recommended in the OECD toxicology guidelines for hazard identification (i.e., cytotoxicity and genotoxicity) of chemicals, were purchased from the German Collection of Microorganisms and Cell Cultures (DSMZ, Braunschweig, Germany). They were cultured in Dulbecco´s modified Eagle medium and Ham´s F12 medium (DMEM/F12) (PromoCell, Heidelberg, Germany) containing 10% fetal calf serum at 37 °C in a humidified atmosphere containing 5% CO2. VC8 hamster cells were defective in DNA double-strand break (DSB) repair by homologous recombination (HR) due to the lack of functional BRCA2 protein [69, 70]. VC8 cells were provided by B. Kaina (Institute of Toxicology, Mainz, Germany). Nucleotide excision repair defective XPA and CSB deficient cells were also provided by B. Kaina and were described before. […]
Cell viability was determined using the Alamar blue assay, which reflected the mitochondrial activity. […] Afterwards, the Neutral red that was taken up by the cells was extracted (50% ethanol/1% of acetic acid, 15 min at room temperature (RT)) and absorbance (540 nm) was measured. […] Approximate IC50 (~IC50, see Supplementary Table S1) were calculated from the corresponding dose-response curves.

V79 cells [5] = experiment: Micronucleus assay; conditions: for micronucleus assay outcome at 50 μM (printed in Figure 2A) / Micronucl. Assay: V79; for Micronucl. Assay: summary grade
Protocol: We analyzed the frequency of micronuclei in binucleated cells, as described [86]. Briefly, logarithmically growing cells were treated with cytochalasin B (3 µg/m) for 24 h. After fixation with formaldehyde (3.7% in PBS, 20 min, RT) and washing with PBS, cells were permeabilized using precooled methanol (20 min, −20 °C.) After washing with PBS and rinsing the cell layer with PBS containing Triton X100 (PBST; 0.3% Triton X100 in PBS), DNA was stained by DAPI (4´,6-diamino-2-phenylindole) and the number of micronuclei was evaluated by fluorescence microscopy. Data shown are the mean ± SEM of three independent experiments with ≥1000 binucleated cells evaluated per experimental condition.

V79 cells [6] = experiment: Nuclear 53BP1 foci formation; format: cell-based, hamster; conditions: 6 to 24 h, V79, in words
Protocol: The frequency of nuclear foci formed by S139 phosphorylated H2AX (γH2AX foci), which is a surrogate marker of DNA damage, especially DNA double-strand breaks (DSBs), was assayed by immunocytochemistry-based analysis. […] The appearance of nuclear 53BP1 foci, which is another marker of DSBs, was also determined by immunocytochemistry. Cells were fixed with 4% formaldehyde in phosphate-buffered saline (PBS) (MERCK, Darmstadt, Germany) (15 min, RT) followed by incubation with ice-cold methanol (≥20 min, −20 °C). After blocking (1 h, RT, blocking solution: 5% BSA (MERCK, Darmstadt, Germany) in PBS/0.3% Triton X-100 (Sigma, Steinheim, Germany)), incubation with γH2AX antibody and 53BP1 antibody was performed (1:500, overnight, 4 °C). After incubation with the secondary fluorescence-labeled antibody (1:500, 1 h, RT, in the dark), cells were mounted in Vectashield (Vector Laboratories (Burlingame, CA, USA)) containing DAPI. The number of nuclear γH2AX and 53BP1 foci was scored (Olympus BX43 fluorescence microscope). Only nuclei with distinct foci were evaluated and γH2AX pan-stained nuclei were excluded from the foci analyses. Data are shown as the mean ± SEM of three independent experiments with ≥50 nuclei analyzed per experimental condition.

V79 cells [7] = experiment: Phospho-ATM (pATM) foci formation; format: cell-based, hamster; conditions: 6 to 24 h, V79, in words
Source text: Figure 4 Cell cycle-related formation of DNA damage by hydroxamic acid- and benzamide-type HDACi. […] (B) For positive control, ionizing radiation (IR) was used. Shown are representative pictures of γH2AX, 53BP1, and pATM stained cells. […] Data shown are the mean ± SD from three independent experiments (n = 3); *, p ≤ 0.05; **, p ≤ 0.01 as compared to the untreated control, which was set to 1.0 (Student´s t-test).

[8] = set-up: method as in PMID 15897550; conditions: humans; read-out: maximal blood serum concentration (Cmax); cited from earlier work
[9] = Homo sapiens, IMR-32, 24 h, approximate IC50, read-out: IC50 - 24 h Treatment, IMR-32
[10] = Homo sapiens, IMR-32, 72 h, approximate IC50, read-out: IC50 - 72 h Treatment, IMR-32
[11] = 24 h, approximate IC50, read-out: IC50 - 24 h Treatment, IMR-32
[12] = 72 h, approximate IC50, read-out: IC50 - 72 h Treatment, IMR-32
[13] = 24 h, approximate IC50, read-out: IC50 - 24 h Treatment, V79
[14] = 72 h, approximate IC50, read-out: IC50 - 72 h Treatment, V79

Row | SMILES | percentage of V79 cells in the SubG1 fraction (V79 cells [3]) | Mean (% DNA in tail) (V79 cells [4]; 10 µM) | Mean (% DNA in tail) (V79 cells [4]; 50 µM) | Mean (% DNA in tail) (V79 cells [4]; 100 µM) | DNA strand breaks (comet assay) (V79 cells [4]) | Comet Assay (V79 cells [4]) | IC50 [1, 11] [nM] | IC50 [1, 12] [nM] | IC50 (V79 hamster lung cells; [13]) [nM] | IC50 (V79 hamster lung cells; [14]) [nM] | IC50 [2, 11] [nM] | IC50 [2, 12] [nM] | sensitivity of XPA-deficient versus XPA proficient cells (XPA-deficient cells) | micronucleus assay outcome at 50 μM (printed in Figure 2A) (V79 cells [5]) | Micronucl. Assay (V79 cells [5]) | Mean (% DNA in tail) (V79 cells [4]; 2 µM) | other results
1 | Nc1ccccc1NC(=O)c1ccc(CNC(=O)OCc2cccnc2)cc1 [Entinostat, entinostat, reference compound] | did not increase the percentage of cells present in the SubG1 fraction | 34.5 | 37.8 | 34.9 | only promoted the formation of DNA strand breaks | − |  |  |  |  |  |  |  |  |  |  | IC50 [1, 9]: 50000 nM; IC50 [1, 10]: 2000 nM; IC50 (V79 hamster lung cells; V79, 24 h, approximate IC50, read-out: IC50 - 24 h Treatment, V79): > 50000 nM; IC50 (V79 hamster lung cells; V79, 72 h, approximate IC50, read-out: IC50 - 72 h Treatment, V79): 2000 nM; IC50 [2, 9]: > 50000 nM; IC50 [2, 10]: 3000 nM
2 | CN(C)c1ccc(C(=O)N(CC(=O)NCc2ccccc2)Cc2ccc(C(=O)NO)cc2)cc1 [DDK137] |  | 6.9 | 17.3 |  | did not cause a significant rise in DNA damage | − | 600 | 200 | 36000 | 17000 | 10000 | 300 | XPA-deficient cells are even more resistant | Cytotoxic | + | 15.1 | 
3 | O=C(CCCCCCC(=O)Nc1ccccc1)NO [Vorinostat, vorinostat, reference compound] | moderate increase of the percentage of V79 cells present in the SubG1 fraction | 8.0 | 13.2 |  | did not cause a significant rise in DNA damage | − |  |  |  |  |  |  | XPA-deficient cells are even more resistant | Cytotoxic | + | 14.0 | formation of nuclear 53BP1 foci (V79 cells [6]): failed to cause the formation of nuclear 53BP1 foci; formation of phospho-ATM (pATM) foci (V79 cells [7]): did not cause the formation of phospho-ATM (pATM) foci; Cmax [8]: ~1000 nM
4 | Nc1ccc(F)cc1NC(=O)c1ccc(CONC(=O)C=Cc2cccnc2)cc1 [MPK77] | neither induced cell death as reflected by an increase in the SubG1 population | 34.0 | 48.1 | 35.5 | significant increase in DNA strand breaks at all concentrations tested | + | 3000 | 2000 | > 50000 | 35000 | 9000 | 3000 |  |  | + |  | frequency of micronuclei (V79 cells [5]; 24 h, V79, in words): slight but significant increase in the frequency of micronuclei
